Measurements from the kinase profiling compilation of Christmann-Franck et al. (2016).

Tests used:
Test in all cases: KINOMEscan competition binding
[1] = target: CDKL3 (human) (UniProt Q8IVW4)
[2] = target: PLK4 (human) (UniProt O00444)
[3] = target: MAP2K1 (human) (UniProt Q02750)
[4] = target: FGFR4 (human) (UniProt P22455)
[5] = target: SYK (human) (UniProt P43405)
[6] = target: ABL1 (human), P00519 [F317I]
[7] = target: FLT3 (human), P36888 [ITD]
[8] = target: ALK (human) (UniProt Q9UM73)
[9] = target: PIK3CA (human), P42336 [H1047Y]
[10] = target: EIF2AK2 (human) (UniProt P19525)
[11] = target: CDK19 (human) (UniProt Q9BWU1)
[12] = target: STK35 (human) (UniProt Q8TDR2)
[13] = target: GSK3B (human) (UniProt P49841)
[14] = target: ERBB2 (human) (UniProt P04626)
[15] = target: RIPK2 (human) (UniProt O43353)
[16] = target: ABL2 (human) (UniProt P42684)
[17] = target: MKNK1 (human) (UniProt Q9BUB5)
[18] = target: CDKL5 (human) (UniProt O76039)
[19] = target: PI4KB (human) (UniProt Q9UBF8)
[20] = target: ERN1 (human) (UniProt O75460)
[21] = target: PRKAA2 (human) (UniProt P54646)
[22] = target: CAMK1G (human) (UniProt Q96NX5)
[23] = target: FGFR2 (human) (UniProt P21802)
[24] = target: TEC (human) (UniProt P42680)
[25] = target: EPHB2 (human) (UniProt P29323)
[26] = target: AURKC (human) (UniProt Q9UQB9)
[27] = target: CSNK1E (human) (UniProt P49674)

Chain of AURKC (human) (Q9UQB9 whole entry, looked up): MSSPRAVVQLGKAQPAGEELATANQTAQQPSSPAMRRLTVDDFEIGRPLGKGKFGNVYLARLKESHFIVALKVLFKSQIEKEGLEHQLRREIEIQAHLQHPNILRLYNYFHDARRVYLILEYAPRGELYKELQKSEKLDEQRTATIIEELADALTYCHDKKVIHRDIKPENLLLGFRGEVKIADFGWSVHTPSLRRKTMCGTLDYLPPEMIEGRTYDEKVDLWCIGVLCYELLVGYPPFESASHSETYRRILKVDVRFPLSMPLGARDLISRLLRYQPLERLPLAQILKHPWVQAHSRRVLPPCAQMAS
Chain of MKNK1 (human) (Q9BUB5 whole entry, looked up): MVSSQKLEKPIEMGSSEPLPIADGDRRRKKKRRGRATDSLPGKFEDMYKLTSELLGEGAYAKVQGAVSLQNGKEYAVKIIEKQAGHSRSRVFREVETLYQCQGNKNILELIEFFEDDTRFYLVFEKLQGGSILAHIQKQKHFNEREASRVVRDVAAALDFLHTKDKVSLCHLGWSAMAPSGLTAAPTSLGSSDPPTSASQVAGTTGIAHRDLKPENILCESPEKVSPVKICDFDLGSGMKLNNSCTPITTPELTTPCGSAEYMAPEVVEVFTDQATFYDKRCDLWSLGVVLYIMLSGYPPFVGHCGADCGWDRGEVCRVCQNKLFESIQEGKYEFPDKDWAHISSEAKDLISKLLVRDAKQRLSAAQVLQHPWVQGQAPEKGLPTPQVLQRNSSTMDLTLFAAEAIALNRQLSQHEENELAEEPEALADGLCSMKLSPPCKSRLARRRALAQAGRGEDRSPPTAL
Chain of EPHB2 (human) (P29323 whole entry, looked up): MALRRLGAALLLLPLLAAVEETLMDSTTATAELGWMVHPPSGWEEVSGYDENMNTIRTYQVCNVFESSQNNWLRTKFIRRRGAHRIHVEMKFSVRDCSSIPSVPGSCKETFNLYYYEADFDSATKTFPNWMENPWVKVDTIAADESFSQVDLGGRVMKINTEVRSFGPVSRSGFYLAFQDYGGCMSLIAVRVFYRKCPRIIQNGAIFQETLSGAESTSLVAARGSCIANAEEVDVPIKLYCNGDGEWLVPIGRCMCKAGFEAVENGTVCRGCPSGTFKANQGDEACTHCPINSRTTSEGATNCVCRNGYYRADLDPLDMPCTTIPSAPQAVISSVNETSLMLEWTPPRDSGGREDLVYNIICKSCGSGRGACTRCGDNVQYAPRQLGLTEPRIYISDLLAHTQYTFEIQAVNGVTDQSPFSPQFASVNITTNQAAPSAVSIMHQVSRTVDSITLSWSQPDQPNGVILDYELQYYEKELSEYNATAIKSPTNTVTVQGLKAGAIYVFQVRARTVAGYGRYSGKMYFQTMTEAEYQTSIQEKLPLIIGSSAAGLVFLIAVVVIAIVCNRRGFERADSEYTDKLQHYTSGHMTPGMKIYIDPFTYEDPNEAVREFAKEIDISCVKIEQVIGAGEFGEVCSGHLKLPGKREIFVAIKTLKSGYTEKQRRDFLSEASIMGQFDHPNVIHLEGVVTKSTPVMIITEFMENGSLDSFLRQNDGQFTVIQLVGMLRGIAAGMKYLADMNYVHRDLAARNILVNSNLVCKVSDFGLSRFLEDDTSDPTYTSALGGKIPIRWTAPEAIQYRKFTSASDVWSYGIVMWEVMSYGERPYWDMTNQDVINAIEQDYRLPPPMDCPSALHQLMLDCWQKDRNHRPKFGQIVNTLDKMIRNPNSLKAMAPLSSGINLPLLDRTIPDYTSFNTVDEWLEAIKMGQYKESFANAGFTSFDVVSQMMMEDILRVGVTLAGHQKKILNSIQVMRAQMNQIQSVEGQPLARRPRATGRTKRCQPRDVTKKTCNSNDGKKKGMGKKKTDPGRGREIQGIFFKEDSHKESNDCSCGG
Chain of CDKL5 (human) (O76039 whole entry, looked up): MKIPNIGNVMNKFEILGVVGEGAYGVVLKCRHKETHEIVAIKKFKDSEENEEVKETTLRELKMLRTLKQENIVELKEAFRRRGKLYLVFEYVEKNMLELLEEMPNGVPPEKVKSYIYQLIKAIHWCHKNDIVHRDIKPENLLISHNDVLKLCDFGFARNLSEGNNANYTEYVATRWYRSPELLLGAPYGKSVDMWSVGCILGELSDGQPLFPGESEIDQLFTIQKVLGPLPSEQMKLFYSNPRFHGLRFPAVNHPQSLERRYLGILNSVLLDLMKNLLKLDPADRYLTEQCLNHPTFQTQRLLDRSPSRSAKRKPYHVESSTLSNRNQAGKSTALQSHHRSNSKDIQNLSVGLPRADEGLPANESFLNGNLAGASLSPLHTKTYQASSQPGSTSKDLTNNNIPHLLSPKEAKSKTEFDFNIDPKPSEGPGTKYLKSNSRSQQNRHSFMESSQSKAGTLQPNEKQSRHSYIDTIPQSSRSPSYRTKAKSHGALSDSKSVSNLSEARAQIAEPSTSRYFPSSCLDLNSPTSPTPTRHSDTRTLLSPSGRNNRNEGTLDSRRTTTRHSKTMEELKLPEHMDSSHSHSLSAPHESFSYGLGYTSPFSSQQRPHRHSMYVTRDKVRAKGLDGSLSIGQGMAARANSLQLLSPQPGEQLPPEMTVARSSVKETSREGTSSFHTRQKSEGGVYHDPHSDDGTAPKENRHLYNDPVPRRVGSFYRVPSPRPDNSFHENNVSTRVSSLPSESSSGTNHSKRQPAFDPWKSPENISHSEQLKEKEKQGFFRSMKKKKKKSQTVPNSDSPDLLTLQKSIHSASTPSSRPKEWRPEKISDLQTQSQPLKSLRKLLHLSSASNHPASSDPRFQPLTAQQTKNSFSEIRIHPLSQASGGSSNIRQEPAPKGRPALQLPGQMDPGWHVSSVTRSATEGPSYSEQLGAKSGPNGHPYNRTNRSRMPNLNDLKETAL
Chain of MAP2K1 (human) (Q02750 whole entry, looked up): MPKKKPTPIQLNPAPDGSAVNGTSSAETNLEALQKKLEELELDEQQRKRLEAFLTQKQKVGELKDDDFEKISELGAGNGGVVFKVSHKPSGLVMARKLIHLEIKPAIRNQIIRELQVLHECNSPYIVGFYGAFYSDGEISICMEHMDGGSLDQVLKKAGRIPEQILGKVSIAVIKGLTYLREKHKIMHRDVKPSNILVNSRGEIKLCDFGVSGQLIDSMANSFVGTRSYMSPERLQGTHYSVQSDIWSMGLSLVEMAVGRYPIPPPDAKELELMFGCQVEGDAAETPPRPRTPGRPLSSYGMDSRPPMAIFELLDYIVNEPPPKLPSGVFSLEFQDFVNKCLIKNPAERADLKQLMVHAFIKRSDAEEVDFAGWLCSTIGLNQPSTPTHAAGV
Chain of RIPK2 (human) (O43353 whole entry, looked up): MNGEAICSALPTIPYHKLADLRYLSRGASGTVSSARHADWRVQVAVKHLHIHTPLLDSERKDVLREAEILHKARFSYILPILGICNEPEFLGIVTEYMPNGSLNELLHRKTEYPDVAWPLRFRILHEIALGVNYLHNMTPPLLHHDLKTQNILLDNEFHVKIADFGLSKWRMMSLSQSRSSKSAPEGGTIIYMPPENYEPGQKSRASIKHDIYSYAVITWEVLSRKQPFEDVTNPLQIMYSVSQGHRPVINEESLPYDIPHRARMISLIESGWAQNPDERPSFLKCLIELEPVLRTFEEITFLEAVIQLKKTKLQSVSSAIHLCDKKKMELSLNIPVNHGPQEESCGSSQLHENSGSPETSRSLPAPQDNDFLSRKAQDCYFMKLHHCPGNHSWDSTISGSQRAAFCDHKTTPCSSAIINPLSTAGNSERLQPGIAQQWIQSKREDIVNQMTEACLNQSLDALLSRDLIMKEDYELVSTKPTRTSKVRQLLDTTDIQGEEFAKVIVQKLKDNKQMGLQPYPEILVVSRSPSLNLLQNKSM
Chain of ERN1 (human) (O75460 whole entry, looked up): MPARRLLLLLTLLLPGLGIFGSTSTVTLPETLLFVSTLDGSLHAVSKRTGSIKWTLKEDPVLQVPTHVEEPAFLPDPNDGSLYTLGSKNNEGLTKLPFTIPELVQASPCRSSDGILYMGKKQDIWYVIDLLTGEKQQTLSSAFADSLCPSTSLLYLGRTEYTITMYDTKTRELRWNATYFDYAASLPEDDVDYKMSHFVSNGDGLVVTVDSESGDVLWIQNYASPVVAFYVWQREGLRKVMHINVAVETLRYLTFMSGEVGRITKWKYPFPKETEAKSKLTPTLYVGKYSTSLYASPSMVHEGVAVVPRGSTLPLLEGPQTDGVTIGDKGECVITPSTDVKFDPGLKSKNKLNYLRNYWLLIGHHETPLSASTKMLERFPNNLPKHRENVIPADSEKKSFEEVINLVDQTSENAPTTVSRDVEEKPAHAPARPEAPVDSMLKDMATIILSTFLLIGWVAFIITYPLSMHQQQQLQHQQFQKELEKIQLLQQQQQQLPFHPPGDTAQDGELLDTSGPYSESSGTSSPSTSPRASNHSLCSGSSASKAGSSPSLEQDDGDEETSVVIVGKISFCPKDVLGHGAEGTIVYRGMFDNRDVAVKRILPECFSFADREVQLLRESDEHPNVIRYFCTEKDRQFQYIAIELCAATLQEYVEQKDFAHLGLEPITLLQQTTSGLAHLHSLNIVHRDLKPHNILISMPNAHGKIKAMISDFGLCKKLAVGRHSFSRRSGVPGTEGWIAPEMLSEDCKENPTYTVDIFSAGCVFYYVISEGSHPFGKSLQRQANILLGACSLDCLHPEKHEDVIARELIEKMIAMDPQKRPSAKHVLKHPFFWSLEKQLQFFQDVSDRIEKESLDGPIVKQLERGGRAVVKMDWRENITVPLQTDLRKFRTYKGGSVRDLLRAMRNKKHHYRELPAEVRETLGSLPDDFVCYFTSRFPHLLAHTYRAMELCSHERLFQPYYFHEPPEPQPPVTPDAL

Kd [1]: 2 µM
Kd [2]: 15 µM
Kd [3]: 7.1 µM
Kd [4]: 0.45 µM
Kd [5]: 0.26 µM
Kd [6]: 0.0025 µM
Kd [7]: 0.022 µM
Kd [8]: 34 µM
Kd [9]: 37 µM
Kd [10]: 34 µM
Kd [11]: 0.94 µM
Kd [12]: 0.47 µM
Kd [13]: 29 µM
Kd [14]: 0.24 µM
Kd [15]: 0.016 µM
Kd [16]: 0.014 µM
Kd [17]: 2.6 µM
Kd [18]: 0.092 µM
Kd [19]: 29 µM
Kd [20]: 19 µM
Kd [21]: 28 µM
Kd [22]: 30 µM
Kd [23]: 3 µM
Kd [24]: 6 µM
Kd [25]: 0.04 µM
Kd [26]: 10 µM
Kd [27]: 16 µM
SMILES: COc1cc2ncnc(Oc3cccc(NC(=O)Nc4cc(C(C)(C)C(F)(F)F)on4)c3)c2cc1OC
